Columns and labels:
[1] = Respiratory Quotient Measurement Assay; assay type: in vivo, Sprague-Dawley rats; conditions: rats, FIG. 9 and FIG. 10
Procedure: Compounds of the present invention were also assayed in a Respiratory Quotient Measurement Assay, as described by Harwood et al. “Isozyme-nonselective N-Substituted Bipiperidylcarboxamide Acetyl-CoA Carboxylase Inhibitors Reduce Tissue Malonyl-CoA Concentrations, Inhibit Fatty Acid Synthesis, and Increase Fatty Acid Oxidation in Cultured Cells and in Experimental Animals” Journal of Biological Chemistry (2008) 278, 37099-37111. An exemplary procedure for the assay, which measures the ratio of carbon dioxide production to oxygen consumption in rats, follows.
Male Sprague-Dawley rats (350-400 g) housed under standard laboratory conditions, either fed chow, fasted, or fasted and refed a diet high in sucrose for 2 days prior to experimentation were removed from their home cages, weighed, and placed into sealed chambers (43″43″10 cm) of the calorimeter (one rat per chamber). The chambers were placed in activity monitors. The calorimeter was calibrated before each use, air flow rate was adjusted to 1.6 liters/min, and the system settling and sampling times were set to 60 and 15 s, respectively. Base-line oxygen consumption, CO2 production, and ambulatory activity were measured every 10 min for up to 3 h before treatment. […]

[2] = High sucrose diet DIO study, plasma cholesterol and triglycerides; assay type: in vivo, Sprague Dawley rats; conditions: for Plasma Cholesterol / Plasma Triglycerides: high sucrose-fed DIO rats, mean ± SEM, n=14
Procedure: The compounds of the present invention are readily adapted to clinical use as anti-obesity agents, insulin sensitizing agents, hyperinsulinemia-reversing agents, and hepatic steatosis-reversing agents. Such activity was determined by assessing the amount of test compound that reduces body weight and percentage body fat, reduces plasma insulin levels, blunts the rise and/or accelerates the reduction in plasma insulin and glucose levels in response to an oral glucose challenge, and reduces hepatic lipid content relative to a control vehicle without test compound in mammals. Sprague Dawley rats were fed either chow, a diet high in sucrose (for example AIN76A rodent diet; Research diets Inc. Cat #10001) or a diet high in fat (for example Research diets Inc. Cat #12451), for from 3-8 weeks prior to and during test compound administration.
For example, after a 3-8 week period of ad libitum feeding of either a chow, high-fat, or high-sucrose diet, animals that continued to receive the diet were treated for 1-8 weeks with test compound administered either by oral gavage in water or saline or water or saline containing 0.5% methylcelluose using a Q.D., B.I.D, or T.I.D. dosing regimen. At various times during study and at sacrifice (by CO2 asphyxiation), blood was collected either from the tail vein of an unanesthesized rat or from the vena cava of animals at sacrifice into heparin or EDTA containing tubes for centrifugal separation to prepare plasma. Plasma levels of parameters of lipid and carbohydrate metabolism known by those skilled in the art to be altered coincident with anti-obesity, insulin sensitizing, hyperinsulinemia-reversing, and hepatic steatosis-reversing actions, including but not limited to cholesterol and triglycerides, glucose, insulin, leptin, adiponectin, ketone bodies, free fatty acids, and glycerol, are measured using methods known to those skilled in the art.
The anti-obesity, insulin sensitizing, hyperinsulinemia-reversing, and hepatic steatosis-reversing potential of compounds of the present invention are exemplified through the actions of example compound I-181. […] Results of the reduction in total body weight measurements after treatment of high fat diet-fed DIO rats with compound I-181 are shown in FIG. 11. The degree of body weight reduction paralleled plasma drug levels measured at the end of the study. […] The plasma leptin levels for animals receiving the standard chow diet (lean controls) were also evaluated to determine the extent of parameter normalization produced by compound I-181. […] Results of the reduction in plasma insulin measurements after treatment of high fat diet-fed DIO rats with compound I-181 are shown in FIG. 12. […] Results of the reduction in hepatic triglyceride and cholesterol measurements after treatment of high fat diet-fed DIO rats with compound I-181 are shown in FIG. 13. […] Results of diet-induced obesity studies measuring the effect of compound I-181 on plasma cholesterol and plasma triglycerides are shown in Table 4 below. Data shown are mean values for n=14 animals per group±SEM.

ACC2 = ACC2 (Homo sapiens, UniProt O00763); assay: In vitro ACC2 inhibition assay (ADP-Glo); assay type: biochemical
Chain of ACC2 (O00763 whole entry, species assumed): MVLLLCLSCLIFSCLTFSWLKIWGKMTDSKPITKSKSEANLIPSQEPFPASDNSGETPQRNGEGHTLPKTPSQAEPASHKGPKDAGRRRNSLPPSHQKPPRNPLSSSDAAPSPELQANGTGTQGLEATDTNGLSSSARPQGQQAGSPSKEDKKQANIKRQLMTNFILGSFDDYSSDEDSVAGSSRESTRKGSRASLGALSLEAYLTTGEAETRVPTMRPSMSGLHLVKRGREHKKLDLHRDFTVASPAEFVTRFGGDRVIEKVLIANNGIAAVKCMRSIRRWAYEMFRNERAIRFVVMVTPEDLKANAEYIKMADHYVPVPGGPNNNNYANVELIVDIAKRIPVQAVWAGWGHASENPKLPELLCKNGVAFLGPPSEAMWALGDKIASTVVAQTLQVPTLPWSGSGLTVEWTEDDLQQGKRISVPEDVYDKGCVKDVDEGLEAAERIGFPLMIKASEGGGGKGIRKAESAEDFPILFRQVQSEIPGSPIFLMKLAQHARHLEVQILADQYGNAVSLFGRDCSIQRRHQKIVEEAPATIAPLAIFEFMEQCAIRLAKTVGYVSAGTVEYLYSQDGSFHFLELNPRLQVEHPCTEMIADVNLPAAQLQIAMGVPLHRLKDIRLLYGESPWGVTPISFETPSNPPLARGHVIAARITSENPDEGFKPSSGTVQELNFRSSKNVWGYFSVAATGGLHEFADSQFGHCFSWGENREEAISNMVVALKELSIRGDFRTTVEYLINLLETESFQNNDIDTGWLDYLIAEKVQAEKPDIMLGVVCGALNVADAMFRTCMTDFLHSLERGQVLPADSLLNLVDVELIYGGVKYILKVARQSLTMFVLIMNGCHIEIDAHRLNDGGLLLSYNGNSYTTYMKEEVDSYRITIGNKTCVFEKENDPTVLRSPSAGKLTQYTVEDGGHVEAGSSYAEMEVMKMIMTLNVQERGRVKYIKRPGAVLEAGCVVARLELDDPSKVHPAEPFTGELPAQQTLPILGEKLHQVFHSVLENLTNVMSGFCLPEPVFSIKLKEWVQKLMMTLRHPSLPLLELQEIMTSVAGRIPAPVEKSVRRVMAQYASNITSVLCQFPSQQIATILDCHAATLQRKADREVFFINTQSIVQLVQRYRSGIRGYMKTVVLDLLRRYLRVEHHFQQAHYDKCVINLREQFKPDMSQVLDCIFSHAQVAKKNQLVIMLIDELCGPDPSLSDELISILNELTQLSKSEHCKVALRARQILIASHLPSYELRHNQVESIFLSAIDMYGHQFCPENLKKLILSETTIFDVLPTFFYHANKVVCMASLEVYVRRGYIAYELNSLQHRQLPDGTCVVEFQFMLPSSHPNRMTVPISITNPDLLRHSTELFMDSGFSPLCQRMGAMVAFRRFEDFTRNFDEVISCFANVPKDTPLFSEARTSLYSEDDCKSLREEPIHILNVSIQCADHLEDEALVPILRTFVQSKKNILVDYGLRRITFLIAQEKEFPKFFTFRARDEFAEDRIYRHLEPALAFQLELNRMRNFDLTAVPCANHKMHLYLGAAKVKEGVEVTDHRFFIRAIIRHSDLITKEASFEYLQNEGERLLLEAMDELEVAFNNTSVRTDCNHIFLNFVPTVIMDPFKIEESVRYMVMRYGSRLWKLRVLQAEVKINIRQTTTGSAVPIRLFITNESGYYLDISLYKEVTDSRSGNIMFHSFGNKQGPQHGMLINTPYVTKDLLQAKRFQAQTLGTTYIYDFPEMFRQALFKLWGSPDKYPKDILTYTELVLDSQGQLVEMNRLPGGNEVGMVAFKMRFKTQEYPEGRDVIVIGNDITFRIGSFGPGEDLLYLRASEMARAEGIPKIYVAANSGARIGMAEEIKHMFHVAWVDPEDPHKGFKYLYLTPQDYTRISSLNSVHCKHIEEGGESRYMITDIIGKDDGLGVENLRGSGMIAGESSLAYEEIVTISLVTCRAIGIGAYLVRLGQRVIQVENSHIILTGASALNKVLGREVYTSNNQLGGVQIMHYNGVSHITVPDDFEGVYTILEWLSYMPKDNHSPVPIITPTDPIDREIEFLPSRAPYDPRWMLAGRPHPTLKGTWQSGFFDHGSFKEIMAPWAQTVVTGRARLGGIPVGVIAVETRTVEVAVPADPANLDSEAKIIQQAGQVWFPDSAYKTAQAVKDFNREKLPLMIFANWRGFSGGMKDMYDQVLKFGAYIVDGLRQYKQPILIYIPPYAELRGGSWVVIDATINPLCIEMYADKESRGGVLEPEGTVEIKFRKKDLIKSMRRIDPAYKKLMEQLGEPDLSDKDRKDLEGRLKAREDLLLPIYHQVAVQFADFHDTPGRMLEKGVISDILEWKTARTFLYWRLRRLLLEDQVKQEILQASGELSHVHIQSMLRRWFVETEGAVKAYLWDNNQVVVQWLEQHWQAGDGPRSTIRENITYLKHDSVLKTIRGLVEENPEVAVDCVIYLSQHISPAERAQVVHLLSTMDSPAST
How it was run: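 Enzyme (human ACC1 or ACC2) and compound, serially diluted 1:3 over 11 points from a 600 uM DMSO stock, were preincubated 15 min before substrate addition.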

## COc1ccccc1[C@H](Cn1c(=O)n(C(C)(C)C(=O)O)c(=O)c2c(C)c(-c3ncco3)sc21)OC1CCOCC1 [I-181, 2-[1-[2-(2-methoxyphenyl)-2-(oxan-4-yloxy)ethyl]-5-methyl-6-(1,3-oxazol-2-yl)-2,4-dioxo-1H,2H,3H,4H-thieno[2,3-d]pyrimidin-3-yl]-2-methylpropanoic acid]
[1]
  RQ relative to baseline: 80-90 % of its baseline value
[1]; doses of 3, 10, 30 and 100 mg/kg
  RQ, dose dependence: dose-dependent decreases in RQ
[2]; high sucrose diet rats, 3, 10, 30 mg/kg once daily oral gavage, two weeks
  plasma cholesterol and triglyceride levels: dose-dependent reduction in plasma cholesterol and triglyceride levels
[2]; 3 mg/kg, Day 7
  Plasma Cholesterol: 94 ± 3 mg/dL
  Plasma Triglycerides: 154 ± 15 mg/dL
[2]; 3 mg/kg, Day 14
  Plasma Cholesterol: 96 ± 3 mg/dL
  Plasma Triglycerides: 171 ± 16 mg/dL
[2]; 3 mg/kg, Prebleed
  Plasma Cholesterol: 96 ± 2 mg/dL
  Plasma Triglycerides: 144 ± 12 mg/dL
[2]; 10 mg/kg, Day 7
  Plasma Cholesterol: 82 ± 3 mg/dL
  Plasma Triglycerides: 139 ± 10 mg/dL
[2]; 10 mg/kg, Day 14
  Plasma Cholesterol: 87 ± 3 mg/dL
  Plasma Triglycerides: 165 ± 15 mg/dL
[2]; 10 mg/kg, Prebleed
  Plasma Cholesterol: 96 ± 3 mg/dL
  Plasma Triglycerides: 183 ± 18 mg/dL
[2]; 30 mg/kg, Day 7
  Plasma Cholesterol: 78 ± 3 mg/dL
  Plasma Triglycerides: 116 ± 9 mg/dL
[2]; 30 mg/kg, Day 14
  Plasma Cholesterol: 78 ± 2 mg/dL
  Plasma Triglycerides: 118 ± 14 mg/dL
[2]; 30 mg/kg, Prebleed
  Plasma Cholesterol: 99 ± 3 mg/dL
  Plasma Triglycerides: 166 ± 13 mg/dL
ACC2
  IC50: < 100 nM
